Source: ChEMBL document CHEMBL5291721, “A preclinical secondary pharmacology resource illuminates target-adverse drug reaction associations of marketed drugs” (Nat Commun, 2023)

Assays:
[1] = molecular target: T1, Alpha-2A adrenergic receptor (Homo sapiens, UniProt P08913); format: functional, cell-based
T1 sequence (P08913 whole entry): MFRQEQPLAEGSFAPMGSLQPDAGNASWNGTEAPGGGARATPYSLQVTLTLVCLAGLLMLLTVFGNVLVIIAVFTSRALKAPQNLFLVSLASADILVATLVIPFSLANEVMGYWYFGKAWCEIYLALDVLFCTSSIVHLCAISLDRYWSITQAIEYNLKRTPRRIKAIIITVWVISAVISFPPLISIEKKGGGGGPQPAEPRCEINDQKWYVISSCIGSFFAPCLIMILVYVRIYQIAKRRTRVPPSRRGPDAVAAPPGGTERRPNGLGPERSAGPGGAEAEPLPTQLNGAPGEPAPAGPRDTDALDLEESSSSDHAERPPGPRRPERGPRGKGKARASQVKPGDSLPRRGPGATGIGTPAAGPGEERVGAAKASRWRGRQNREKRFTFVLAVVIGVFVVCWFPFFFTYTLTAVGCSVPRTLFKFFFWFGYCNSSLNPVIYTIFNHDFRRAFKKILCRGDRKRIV

B2 bradykinin receptor = molecular target: T2, B2 bradykinin receptor (Homo sapiens, UniProt P30411)
T2 sequence (P30411 whole entry): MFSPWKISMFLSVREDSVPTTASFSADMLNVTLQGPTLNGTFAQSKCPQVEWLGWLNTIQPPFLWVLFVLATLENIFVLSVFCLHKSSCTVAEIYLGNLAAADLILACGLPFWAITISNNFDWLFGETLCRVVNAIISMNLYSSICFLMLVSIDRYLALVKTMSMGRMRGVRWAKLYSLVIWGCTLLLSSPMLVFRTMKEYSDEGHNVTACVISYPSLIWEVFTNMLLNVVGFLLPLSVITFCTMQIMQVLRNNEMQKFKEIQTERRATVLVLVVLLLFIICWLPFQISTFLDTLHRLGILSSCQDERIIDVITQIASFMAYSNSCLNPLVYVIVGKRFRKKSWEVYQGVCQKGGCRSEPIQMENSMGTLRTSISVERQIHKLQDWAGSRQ

[2] = molecular target: T3, Gastrin/cholecystokinin type B receptor (Homo sapiens, UniProt P32239)
T3 sequence (P32239 whole entry): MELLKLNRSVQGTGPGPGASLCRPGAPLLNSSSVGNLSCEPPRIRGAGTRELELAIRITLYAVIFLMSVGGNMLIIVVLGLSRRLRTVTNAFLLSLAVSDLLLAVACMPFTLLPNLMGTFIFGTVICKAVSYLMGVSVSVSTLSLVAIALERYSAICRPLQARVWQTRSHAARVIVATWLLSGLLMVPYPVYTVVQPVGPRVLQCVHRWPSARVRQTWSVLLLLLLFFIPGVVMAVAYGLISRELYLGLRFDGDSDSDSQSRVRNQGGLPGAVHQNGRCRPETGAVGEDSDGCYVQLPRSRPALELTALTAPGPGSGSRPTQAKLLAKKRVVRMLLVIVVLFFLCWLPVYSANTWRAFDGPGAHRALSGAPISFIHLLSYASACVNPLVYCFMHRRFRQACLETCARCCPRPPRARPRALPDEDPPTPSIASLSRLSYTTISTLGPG

D(1A) dopamine receptor = D(1A) dopamine receptor (Homo sapiens, UniProt P21728); format: functional, cell-based
[3] = molecular target: T4, 5-hydroxytryptamine receptor 1A (Homo sapiens, UniProt P08908); format: functional, cell-based
T4 sequence (P08908 whole entry): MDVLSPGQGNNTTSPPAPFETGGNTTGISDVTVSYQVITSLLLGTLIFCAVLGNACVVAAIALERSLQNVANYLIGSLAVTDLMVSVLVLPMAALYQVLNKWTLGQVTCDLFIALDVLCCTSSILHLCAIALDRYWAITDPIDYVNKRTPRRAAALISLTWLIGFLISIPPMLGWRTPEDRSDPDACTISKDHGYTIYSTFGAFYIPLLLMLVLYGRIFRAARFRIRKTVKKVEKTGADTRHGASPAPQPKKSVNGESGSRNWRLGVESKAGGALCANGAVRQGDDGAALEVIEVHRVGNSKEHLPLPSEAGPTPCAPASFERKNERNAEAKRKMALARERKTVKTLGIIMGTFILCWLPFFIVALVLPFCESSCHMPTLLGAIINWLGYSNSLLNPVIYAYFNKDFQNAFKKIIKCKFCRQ

[4] = molecular target: 5-hydroxytryptamine receptor 2B (Homo sapiens, UniProt P41595); format: functional, cell-based
[5] = molecular target: T5, 5-hydroxytryptamine receptor 3A (Homo sapiens, UniProt P46098); format: functional
T5 sequence (P46098 whole entry): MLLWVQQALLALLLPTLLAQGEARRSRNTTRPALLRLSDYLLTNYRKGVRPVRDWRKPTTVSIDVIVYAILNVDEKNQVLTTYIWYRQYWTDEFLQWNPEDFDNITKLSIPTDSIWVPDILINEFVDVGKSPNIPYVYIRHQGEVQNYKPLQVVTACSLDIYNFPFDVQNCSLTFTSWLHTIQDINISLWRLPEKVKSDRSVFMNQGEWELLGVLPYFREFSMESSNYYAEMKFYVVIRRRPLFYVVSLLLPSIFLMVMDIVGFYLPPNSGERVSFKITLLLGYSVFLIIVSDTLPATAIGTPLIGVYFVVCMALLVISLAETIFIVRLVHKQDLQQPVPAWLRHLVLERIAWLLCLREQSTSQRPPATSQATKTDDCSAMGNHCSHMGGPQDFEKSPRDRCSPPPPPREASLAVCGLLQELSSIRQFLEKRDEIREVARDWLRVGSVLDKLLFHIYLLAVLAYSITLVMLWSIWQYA

[6] = molecular target: Delta-type opioid receptor (Homo sapiens, UniProt P41143)
[7] = molecular target: Sodium-dependent noradrenaline transporter (Homo sapiens, UniProt P23975)
Also: assay procedure not described here.

Chain of D(1A) dopamine receptor (P21728 whole entry): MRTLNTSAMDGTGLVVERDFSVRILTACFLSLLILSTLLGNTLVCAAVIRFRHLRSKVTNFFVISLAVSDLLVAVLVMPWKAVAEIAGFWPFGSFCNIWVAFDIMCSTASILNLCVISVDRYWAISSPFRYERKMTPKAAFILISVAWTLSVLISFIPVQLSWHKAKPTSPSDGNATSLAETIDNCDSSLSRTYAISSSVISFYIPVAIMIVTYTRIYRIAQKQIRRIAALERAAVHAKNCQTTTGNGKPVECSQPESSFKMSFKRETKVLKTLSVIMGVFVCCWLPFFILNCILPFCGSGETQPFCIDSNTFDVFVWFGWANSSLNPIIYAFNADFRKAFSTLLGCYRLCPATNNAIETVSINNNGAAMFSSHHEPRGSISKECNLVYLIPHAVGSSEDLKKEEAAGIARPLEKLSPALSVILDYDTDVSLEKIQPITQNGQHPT
Chain of Delta-type opioid receptor (P41143 whole entry): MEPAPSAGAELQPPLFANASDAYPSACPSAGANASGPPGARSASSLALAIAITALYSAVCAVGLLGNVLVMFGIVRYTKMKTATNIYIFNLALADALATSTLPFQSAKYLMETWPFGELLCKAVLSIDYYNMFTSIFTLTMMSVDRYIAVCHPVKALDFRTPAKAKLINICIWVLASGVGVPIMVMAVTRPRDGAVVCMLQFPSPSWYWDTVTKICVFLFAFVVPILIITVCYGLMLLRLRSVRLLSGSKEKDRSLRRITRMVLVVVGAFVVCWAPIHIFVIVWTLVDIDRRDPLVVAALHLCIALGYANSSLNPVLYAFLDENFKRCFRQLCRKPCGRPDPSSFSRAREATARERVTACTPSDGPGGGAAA
Chain of 5-hydroxytryptamine receptor 2B (P41595 whole entry): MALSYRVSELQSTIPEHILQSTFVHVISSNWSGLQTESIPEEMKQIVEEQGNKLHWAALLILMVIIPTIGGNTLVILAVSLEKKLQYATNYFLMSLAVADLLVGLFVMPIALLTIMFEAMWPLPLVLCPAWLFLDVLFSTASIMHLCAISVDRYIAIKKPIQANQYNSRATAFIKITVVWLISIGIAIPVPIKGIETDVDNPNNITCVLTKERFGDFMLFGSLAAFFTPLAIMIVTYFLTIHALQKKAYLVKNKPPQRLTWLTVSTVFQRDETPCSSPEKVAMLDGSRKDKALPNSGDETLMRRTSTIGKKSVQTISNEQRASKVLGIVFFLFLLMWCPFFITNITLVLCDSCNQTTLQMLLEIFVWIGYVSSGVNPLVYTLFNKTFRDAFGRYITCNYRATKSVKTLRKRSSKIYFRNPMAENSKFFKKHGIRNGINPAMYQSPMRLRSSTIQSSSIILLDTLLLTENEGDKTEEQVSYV
Chain of Sodium-dependent noradrenaline transporter (P23975 whole entry): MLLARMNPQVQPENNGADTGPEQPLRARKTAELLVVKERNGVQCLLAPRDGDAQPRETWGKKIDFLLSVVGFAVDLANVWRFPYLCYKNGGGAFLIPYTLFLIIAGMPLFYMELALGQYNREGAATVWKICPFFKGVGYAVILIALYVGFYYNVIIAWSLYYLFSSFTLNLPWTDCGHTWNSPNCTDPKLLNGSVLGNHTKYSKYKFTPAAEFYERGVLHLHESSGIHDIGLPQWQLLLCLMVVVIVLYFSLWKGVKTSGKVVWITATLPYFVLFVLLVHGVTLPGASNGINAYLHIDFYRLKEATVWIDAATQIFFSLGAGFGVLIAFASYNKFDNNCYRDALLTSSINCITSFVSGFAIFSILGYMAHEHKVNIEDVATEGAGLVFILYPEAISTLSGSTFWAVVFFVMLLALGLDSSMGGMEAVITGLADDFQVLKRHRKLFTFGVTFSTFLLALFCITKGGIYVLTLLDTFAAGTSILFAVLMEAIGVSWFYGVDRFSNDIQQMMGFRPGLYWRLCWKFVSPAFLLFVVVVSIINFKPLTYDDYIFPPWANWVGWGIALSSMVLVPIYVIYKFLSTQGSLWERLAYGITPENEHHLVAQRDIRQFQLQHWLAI

| Structure (SMILES) | AC50 [1] [µM] | AC50 (B2 bradykinin receptor) [µM] | AC50 [2] [µM] | AC50 (D(1A) dopamine receptor) [µM] | AC50 [3] [µM] | AC50 [4] [µM] | AC50 [5] [µM] | AC50 [6] [µM] | AC50 [7] [µM] |
| --- | --- | --- | --- | --- | --- | --- | --- | --- | --- |
| CC/C=C\C/C=C\C/C=C\C/C=C\C/C=C\CCCC(=O)OCC [ICOSAPENT ETHYL] | > 30 | > 30 | > 30 | > 30 | > 30 | > 30 | > 30 | > 30 | > 30 |
| C[C@]12C/C(=C/O)C(=O)C[C@@H]1CC[C@@H]1[C@@H]2CC[C@@]2(C)[C@H]1CC[C@]2(C)O [OXYMETHOLONE] | > 30 | > 30 | > 30 | > 30 | > 30 | > 30 | > 30 | > 30 | > 30 |
| CCCCOc1ccc(C(=O)CCN2CCCCC2)cc1 [DYCLONINE] | > 10 | > 30 | > 30 | > 10 | > 10 | > 10 | > 10 | > 10 | 2.3 |
| OC[C@H]1O[C@@H](Oc2cc(O)cc(/C=C/c3ccc(O)cc3)c2)[C@H](O)[C@@H](O)[C@@H]1O [PICEID] | > 30 | > 30 | > 30 | > 30 | > 30 | > 30 | > 30 | > 30 | > 30 |
| O=C(O)CCNC(=O)c1ccc(/N=N/c2ccc(O)c(C(=O)O)c2)cc1 [BALSALAZIDE] | > 30 | > 30 | > 30 | > 30 | > 30 | > 30 | 15 | > 30 | > 30 |
| CO/N=C(\C(=O)N[C@@H]1C(=O)N2C(C(=O)O)=C(CSc3nc(=O)c(=O)[nH]n3C)CS[C@H]12)c1csc(N)n1 [CEFTRIAXONE] | > 30 | > 30 | > 30 | > 30 | > 30 | > 30 | > 30 | > 30 | > 30 |
| CC(C)(C)NCC(O)c1ccccc1Cl (configuration not stated) [TULOBUTEROL] | > 30 | > 30 | > 30 | > 30 | > 30 | > 30 | > 30 | > 30 | > 30 |
| COc1cc2[nH]c(C)c(CCN3CCN(c4ccccc4)CC3)c2cc1OC [OXYPERTINE] | 7.4 | > 30 | > 30 | > 30 | > 30 | > 30 | > 30 | > 30 | 14 |
| CC(CN(C)C)C(C)(O)Cc1ccc(Cl)cc1 (configuration not stated) [CLOBUTINOL] | > 10 | > 30 | > 30 | > 10 | > 10 | > 10 | > 30 | > 30 | > 30 |
| CN1CCN=C(c2ccccc2)c2cc(Cl)ccc21 [MEDAZEPAM] | > 30 | > 30 | > 30 | > 30 | > 30 | > 30 | > 30 | > 30 | > 30 |
| COc1cc(C(=O)OCc2cccc(COC(=O)c3cc(OC)c(OC)c(OC)c3)n2)cc(OC)c1OC [PIROZADIL] | > 30 | > 30 | > 30 | > 30 | > 30 | > 30 | > 30 | > 30 | > 30 |
| CCC(NC(C)C)C(O)c1ccc(O)c2[nH]c(=O)ccc12 (configuration not stated) [PROCATEROL] | > 30 | > 30 | > 30 | > 30 | > 30 | > 30 | > 30 | > 30 | > 30 |
| Cn1c(=O)c2c(ncn2CCOC(=O)C(C)(C)Oc2ccc(Cl)cc2)n(C)c1=O [THEOFIBRATE] | > 30 | > 30 | > 30 | > 30 | > 30 | > 30 | > 30 | > 30 | > 30 |
